Source: article PMC9794833, “Ligand recognition and activation of neuromedin U receptor 2” (Nature Communications, 2022)
Values joined by “and” are separate entries in the source; they are usually repeats but may differ in a detail not shown here. Equal entries are not always repeated. Where a SMILES comes first, the peptide text is derived from it. [ ]: non-standard residue; d: D form. The star is where a group is joined. αMeW = C[C@](N)(Cc1c[nH]c2ccccc12)C(=O)O; Acetyl(2-thienyl) = O=C(Cc1cccs1)*

Tests used:
[1] = biological target: T1, NMU2 A302H (Homo sapiens, UniProt Q9GZQ4, A302H); experiment: TRUPATH assay, NMU2 mutant A302H; format: cell-based; conditions: Log [CPN 267] M -13
T1 construct: HA signal peptide (N); expressed in transfected cells; host or cells: HEK 293F
Protocol: (§1) The plasmids of Gαi1, Gβ3, and Gγ9 used for the TRUPATH assay were purchased from Addgene (TRUPATH Kit, #1000000163). NMU2 constructs of WT and mutants were constructed into a PTT5 vector (Invitrogen) with an N-terminal HA signal peptide followed by a Flag tag. HEK 293F cells were transiently transfected with WT or mutants of NMU2, Gαi1, Gβ3, and Gγ9 at an […] ratio of 4:1:1:1 with a total of 3500 ng plasmid DNA using a transfection reagent (PEI MAX 2000, Polysciences) and cultivated at 37 °C with 5 % CO2. Cells were collected after 48-h transfection. The expression level of the receptor was measured by incubating 10 μl cells with 15 μl TBS buffer supplemented with 4% bovine serum albumin, 20% (v/v) viability staining solution7-AAD (Invitrogen, Cat#00-6993-50), and ANTI-FLAG M2-FITC antibody (Sigma, F4049; 1:100 diluted by TBS) at 4 °C for 20 min. After incubation, 175 μl TBS buffer was added, and the fluorescence signal on the cell surface was detected by an FCM (flow cytometry) reader (Millipore). The cells were diluted with 1× HBSS (Hank’s balanced salt solution) balanced buffer supplemented with 25 mM HEPES, pH 7.4, and seeded onto the 96-well opaque cell culture plates (Beyotime) at a density of 18,000 cells per well by 60 μl. Freshly prepared 50 μM coelenterazine 400a (Nanolight Technologies) was added into the well by 10 μl. After a 5 min equilibration time in the darkness, plates were then read in a Synerg^TM H1 microplate reader (BioTek) with excitation at 395 nm and emission at 410 and 515 nm by serially three times. Then, 30 μl of 3.3× agonists were added into the wells with a gradient final concentration from 10^−4–10^−13 M. Plates were read immediately again by serially five times. Data were processed and analyzed following the method in the literature by using GraphPad Prism 8.0.

[2] = tested on: NMU1; design: method as in PMID 24999562, PMID 25815150, PMID 28548497; conditions: cited from earlier work
[3] = biological target: T2, NMU2 H43E (Homo sapiens, UniProt Q9GZQ4, H43E); experiment: TRUPATH assay, NMU2 mutant H43E; format: cell-based; conditions: for increase of Emax: H43E vs WT, TRUPATH; for CPN 267–induced G protein activation of NMU2: single replicates
T2 construct: HA signal peptide (N); expressed in transfected cells; host or cells: HEK 293F
Protocol: as §1

[4] = biological target: T3, NMU2 N306Q (Homo sapiens, UniProt Q9GZQ4, N306Q); experiment: TRUPATH assay, NMU2 mutant N306Q; format: cell-based
T3 construct: HA signal peptide (N); expressed in transfected cells; host or cells: HEK 293F
Protocol: as §1

[5] = biological target: T4, NMU2 (Homo sapiens, UniProt Q9GZQ4); experiment: TRUPATH Gαi1βγ biosensor assay, WT NMU2; format: cell-based; conditions: WT; for CPN 267–induced G protein activation of NMU2: single replicates
T4 construct: HA signal peptide (N); expressed in transfected cells; host or cells: HEK 293F
Protocol: as §1

T4 sequence (Q9GZQ4 whole entry): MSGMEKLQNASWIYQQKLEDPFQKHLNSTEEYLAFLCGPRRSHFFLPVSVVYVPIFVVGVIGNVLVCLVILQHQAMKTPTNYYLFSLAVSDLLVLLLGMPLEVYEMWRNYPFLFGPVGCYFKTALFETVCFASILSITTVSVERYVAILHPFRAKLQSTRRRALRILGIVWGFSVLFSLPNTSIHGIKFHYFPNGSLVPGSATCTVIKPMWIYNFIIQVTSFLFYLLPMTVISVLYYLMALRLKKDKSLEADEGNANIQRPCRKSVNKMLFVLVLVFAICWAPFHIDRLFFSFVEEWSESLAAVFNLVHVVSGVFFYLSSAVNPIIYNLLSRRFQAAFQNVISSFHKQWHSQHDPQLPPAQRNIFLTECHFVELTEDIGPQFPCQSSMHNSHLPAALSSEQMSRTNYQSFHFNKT
T3 sequence (Q9GZQ4 whole entry N306Q): as the sequence (Q9GZQ4 whole entry) above, with N306Q counted along it
T2 sequence (Q9GZQ4 whole entry H43E): as the sequence (Q9GZQ4 whole entry) above, with H43E counted along it
T1 sequence (Q9GZQ4 whole entry A302H): as the sequence (Q9GZQ4 whole entry) above, with A302H counted along it

For `C[C@@](Cc1c[nH]c2ccccc12)(NC(=O)[C@H](Cc1c[nH]c2ccccc12)NC(=O)Cc1cccs1)C(=O)N[C@@H](CCCNC(=N)N)C(=O)N1CCC[C@H]1C(=O)N[C@@H](CCCNC(=N)N)C(=O)N[C@@H](CC(N)=O)C(N)=O` [CPN 267] ({Acetyl(2-thienyl)}-W[αMeW]RPRN-NH2; N-terminus assumed), the “CPN 267 dose-response point on NMU2 (TRUPATH, raw signal)” value (“CPN 267 dose-response point on NMU2” for short) [1] is given as 0, the “selectivity over NMU2” value ([2]; NMU1 over NMU2) is given as 1000 fold and the EC50 ([2]; agonistic activity for NMU1) is given as 0.25 nM. The “EC50 ratio EC50(mutant)/EC50(WT)” value ([3]; H43E) was 2, the “increase of Emax” value [3] was “twofold” and the “increase of Emax” value ([3]; listed as CPN267) was 2 fold. The “CPN 267 dose-response point on NMU2” value ([3]; H43E, Log [CPN 267] M -4) was -0.04819, the “CPN 267–induced G protein activation of NMU2” value ([3]; H43E, Log [CPN 267] M -4) was -0.04819 and the “CPN 267–induced G protein activation of NMU2” value ([3]; H43E, Log [CPN 267] M -5) was -0.05461 and -0.04902. The “CPN 267–induced G protein activation of NMU2” value ([3]; H43E, Log [CPN 267] M -6) was -0.04442 and -0.04638 and -0.03015, the “CPN 267–induced G protein activation of NMU2” value ([3]; H43E, Log [CPN 267] M -7) was -0.01102 and -0.01529 and -0.01284 and the “CPN 267–induced G protein activation of NMU2” value ([3]; H43E, Log [CPN 267] M -8) was 0.004556 and -0.024 and -0.02479. For the same compound, the “CPN 267–induced G protein activation of NMU2” value ([3]; H43E, Log [CPN 267] M -9) was 0.01023 and -0.003075 and 0.003569, the “CPN 267–induced G protein activation of NMU2” value ([3]; H43E, Log [CPN 267] M -10) was 0.0005609 and -0.01099 and -0.03027 and the “CPN 267–induced G protein activation of NMU2” value ([3]; H43E, Log [CPN 267] M -11) was 0.0192 and 0.004402 and 0. The “CPN 267–induced G protein activation of NMU2” value ([3]; H43E, Log [CPN 267] M -12) was 0.009217 and 0, the “CPN 267 dose-response point on NMU2” value ([3]; H43E, Log [CPN 267] M -13) was 0 and the “CPN 267–induced G protein activation of NMU2” value ([3]; H43E, Log [CPN 267] M -13) was 0. For the same compound, the “EC50 ratio EC50(mutant)/EC50(WT)” value [4] was 0.12, the “CPN 267–induced G protein activation of NMU2” value ([4]; Log [CPN 267] M -4, single replicates) was -0.07238 and -0.04006 and -0.03184 and the “CPN 267–induced G protein activation of NMU2” value ([4]; Log [CPN 267] M -5, single replicates) was -0.01962 and -0.06076 and -0.0468 and -0.06887. The “CPN 267–induced G protein activation of NMU2” value ([4]; Log [CPN 267] M -6, single replicates) was -0.04834 and -0.04745, the “CPN 267 dose-response point on NMU2” value ([4]; Log [CPN 267] M -13) was 0 and the “enhanced potency compared to the WT receptor” value ([4]; TRUPATH) was “about 8 fold”. For the same compound, the “EC50 ratio EC50(mutant)/EC50(WT)” value [5] was 1, the “CPN 267–induced G protein activation of NMU2” value ([5]; Log [CPN 267] M -5) was -0.03587 and 0.007188 and -0.01399 and -0.02335 and the “CPN 267–induced G protein activation of NMU2” value ([5]; Log [CPN 267] M -6) was -0.02292 and -0.01831 and -0.0188 and -0.02168 and -0.03547 and -0.01761 and -0.003911 and -0.0252 and -0.02032. For the same compound, the “CPN 267–induced G protein activation of NMU2” value ([5]; Log [CPN 267] M -7) was -0.006001 and -0.01343 and -0.0256 and -0.004694 and 0.01387 and -0.02539 and 0.01253 and -0.01403 and -0.001793, the “CPN 267–induced G protein activation of NMU2” value ([5]; Log [CPN 267] M -8) was 0.003495 and -0.002501 and 0.007246 and 0.0002105 and -0.01007 and 0.01037 and -0.008456 and 0.001798 and the “CPN 267–induced G protein activation of NMU2” value ([5]; Log [CPN 267] M -9) was -0.002278 and 0.02355 and -0.003166 and -0.00428 and 0.01286 and -0.01712 and 0.00907 and -0.02718 and 0.02569. The “CPN 267–induced G protein activation of NMU2” value ([5]; Log [CPN 267] M -10) was 0.01327 and -0.00722 and 0.003132 and -0.01489 and -0.004805 and 0.01086 and 0.01655 and -0.01176, the “CPN 267–induced G protein activation of NMU2” value ([5]; Log [CPN 267] M -11) was 0.01288 and -0.01868 and -0.005647 and 0.02201 and -0.02258 and -0.03283 and 0 (3×) and the “CPN 267–induced G protein activation of NMU2” value ([5]; Log [CPN 267] M -12) was 0.001564 and -0.001695 and 0.03559 and -0.01351 and 0.02492 and 0. For the same compound, the “CPN 267 dose-response point on NMU2” value ([5]; Log [CPN 267] M -13) was 0 and the “CPN 267–induced G protein activation of NMU2” value ([5]; Log [CPN 267] M -13) was 0.
